Values after ≈ are worked out from the molar mass of the structure shown.
Legend:
SW620 = test: three day MTT cytotoxicity assay, SW620; assay type: cell-based, human; details: for IC50: Homo sapiens, SW-620, SW620, 72 hours, read-out: IC50 for cell lines SW620; for IC50 for cell lines SW620: SW620, 72 hours
Experimental: (§1) Briefly, a three day MTT cytotoxicity assay was performed, which is based on the principle of uptake of MTT (3-(4,5-dimethylthiazol-2-yl)-2,5-diphenyl tetrazolium bromide), a tetrazolium salt, by the metabolically active cells where it is metabolized by active mitochondria into a blue colored formazan product that is read spectrophotometrically. MIT was dissolved in phosphate buffered saline with a pH of 7.4 to obtain an MIT concentration of 5 mg/ml; the resulting mixture was filtered through a 0.22-micron filter to sterilize and remove a small amount of insoluble residue. For each type of tumor cell, 10,000 to 15,000 cells were seeded in a 96-well culture plate and incubated with the individual betulinic acid derivatives in a CO2 incubator for a total of 72 hours. Control cells not treated with the betulinic acid derivatives were similarly incubated. The assay was terminated by adding 100 μg (20 μl) of MIT to each well then incubating for additional one hour, and finally adding 50 μl of 10% SDS-0.01N HCl to each well to lyse the cells and dissolve formazan. After incubating for one hour, the plate was read spectrophotometrically at 540 nm and the percentage of cytotoxicity calculated using the following formula: Cytotoxicity percentage=100×[1−(X/R1)], where X=(absorbance of treated sample at 540 nm)−(absorbance of blank at 540 nm) R1=absorbance of control sample at 540 nm. The IC50 Values of the cytotoxicity defined as the concentration at which 50% of the cells are killed in vitro was calculated for each cell line treated with each of the betulinic acid derivatives.

DU145 = test: three day MTT cytotoxicity assay, DU145; assay type: cell-based, human; details: for IC50: Homo sapiens, DU-145, DU145, 72 hours, read-out: IC50 for cell lines DU145; for IC50 for cell lines DU145: DU145, 72 hours
Experimental: (§2) A number of compounds listed in Table-3 were tested for cytotoxicity against prostate, lung, laryngeal, pancreas, breast, colon and ovarian cancer, leukemia and lymphoma, human tumor cell lines. Briefly, a three day MTT cytotoxicity assay was performed, which is based on the principle of uptake of MTT (3-(4,5-dimethylthiazol-2-yl)-2,5-diphenyl tetrazolium bromide), a tetrazolium salt, by the metabolically active cells where it is metabolized by active mitochondria into a blue colored formazan product that is read spectrophotometrically. MIT was dissolved in phosphate buffered saline with a pH of 7.4 to obtain an MIT concentration of 5 mg/ml; the resulting mixture was filtered through a 0.22-micron filter to sterilize and remove a small amount of insoluble residue. For each type of tumor cell, 10,000 to 15,000 cells were seeded in a 96-well culture plate and incubated with the individual betulinic acid derivatives in a CO2 incubator for a total of 72 hours. Control cells not treated with the betulinic acid derivatives were similarly incubated. The assay was terminated by adding 100 μg (20 μl) of MIT to each well then incubating for additional one hour, and finally adding 50 μl of 10% SDS-0.01N HCl to each well to lyse the cells and dissolve formazan. After incubating for one hour, the plate was read spectrophotometrically at 540 nm and the percentage of cytotoxicity calculated using the following formula: Cytotoxicity percentage=100×[1−(X/R1)], where X=(absorbance of treated sample at 540 nm)−(absorbance of blank at 540 nm) R1=absorbance of control sample at 540 nm. The IC50 Values of the cytotoxicity defined as the concentration at which 50% of the cells are killed in vitro was calculated for each cell line treated with each of the betulinic acid derivatives.

Miapaca = test: three day MTT cytotoxicity assay, Miapaca; assay type: cell-based, human; details: for IC50: Homo sapiens, MIA PaCa-2, read-out: IC50 for cell lines Miapaca; for IC50 / IC50 for cell lines Miapaca: Miapaca, 72 hours, MTT; for Specific Index (SI) for cell lines Miapaca: ratio of IC50 of NIH 3T3 cells to Miapaca
Experimental: as §2

PA1 = test: three day MTT cytotoxicity assay, PA1; assay type: cell-based, human; details: for IC50: Homo sapiens, PA-1, PA1, 72 hours, read-out: IC50 for cell lines PA1; for IC50 for cell lines PA1: PA1, 72 hours
Experimental: as §1

HBL100 = test: three day MTT cytotoxicity assay, HBL100; assay type: cell-based, human; details: for IC50: Homo sapiens, HBL-100, read-out: IC50 for cell lines HBL100; for IC50 / IC50 for cell lines HBL100: HBL100, 72 hours, MTT; for Specific Index (SI) for cell lines HBL100: ratio of IC50 of NIH 3T3 cells to HBL100
Experimental: as §2

[1] = Pharmacokinetic study after intravenous injection; details: rat, plasma
Experimental: (§3) Blood samples were taken at various times after administration and plasma was prepared and frozen at −20° C. until analysis. The plasma sample were analyzed by a suitable HPLC method using a C-18 column. The pH of water is adjusted to 3.0 with phosphoric acid. Start the gradient with 70% acetonitrile for 5 minutes and increase the concentration up to 100% within 25 minutes followed by hold at 100% for 10 minutes. It is thus possible to construct the curve showing the plasma concentration as a function of time and to determine different pharmacokinetic parameter of compound studied.

normal cells = details: literature study; cited from earlier work
A549 = test: three day MTT cytotoxicity assay, A549; assay type: cell-based, human; details: for IC50: Homo sapiens, read-out: IC50 for cell lines A549; for IC50 / IC50 for cell lines A549: A549, 72 hours, MTT
NIH 3T3 cells = test: NIH3T3 cytotoxicity test (72 h MTT assay); assay type: cell-based; details: NIH3T3, 72 hours
Experimental: The cytotoxic effect of chemicals upon NIH 3T3 cells in culture is measured by cell metabolism determination using the previously described MIT assay. Healthy NIH 3T3 cells (an established cell-line), when maintained in culture continuously divide and multiply over time. The basis of this test is that a cytotoxic chemical (regardless of site or mechanism of action) will interfere with this process and, thus, result in a reduction of the growth rate as reflected by cell number. The degree of inhibition of growth, related to the concentration of the test compound, provides an indication of toxicity.
The NIH 3T3 cells are maintained in culture and exposed to test compounds over a range of concentrations and the number of viable cells determined after 72 hours exposure by MIT assay. The number of cells in the presence of test chemicals are compared to that observed in control cultures and the percent inhibition of growth calculated. The IC50 concentration (i.e. the concentration producing 50% inhibition of growth) is determined and expressed as μg/ml. A ratio of IC50 of NIH 3T3 cells to tumor cells is an indicator of predicted toxicity of the molecule and is represented as “Safety Index”. The higher the value, the better is the predicted safety of the molecule.

K562 = test: three day MTT cytotoxicity assay, K562; assay type: cell-based, human; details: for Specific Index (SI) for cell lines K562: ratio of IC50 of NIH 3T3 cells to K562
[2] = test system: various cancer cell lines
tumor = details: murine xenograft models; cited from earlier work
[3] = rat, in vivo, iv, 10 mg/kg
Experimental: as §3

in vivo = details: male, Wistar, rat, iv, 10 mg/kg
Experimental: as §3

SMILES | IC50 (SW620) | IC50 (DU145) | IC50 (Miapaca) | IC50 (PA1) | IC50 (HBL100) | IC50 (A549) | IC50 for cell lines SW620 (SW620) | IC50 for cell lines DU145 (DU145) | IC50 for cell lines Miapaca (Miapaca) | IC50 for cell lines PA1 (PA1) | IC50 for cell lines HBL100 (HBL100) | IC50 for cell lines NIH3T3 (NIH 3T3 cells) | IC50 for cell lines A549 (A549) | IC50 for cell lines K562 (K562; K562, 72 hours, MTT) | also measured
C=C(C)[C@@H]1CC[C@]2(C(=O)O)CC[C@]3(C)[C@H](CC[C@@H]4[C@@]5(C)CC[C@H](O)C(C)(C)[C@@H]5CC[C@]43C)[C@@H]12 [Betulinic Acid (II), 33-hydroxy-lup-20(29)-en-28-oic acid, reference compound] | 13.3 µg/mL (≈ 29 µM) | > 20 µg/mL | > 20 µg/mL | 11.5 µg/mL (≈ 25.2 µM) | 5.02 µg/mL (≈ 11 µM) | 3.01 µg/mL (≈ 6.59 µM) |  |  |  |  |  |  |  |  | AUC ([1]; male, Wistar, iv, 10 mg/kg): 13900 ng·h/mL; AUC(0-t) ([1]; male, Wistar, iv, 10 mg/kg): 10600 ng·h/mL; C0 ([1]; male, Wistar, iv, 10 mg/kg): 36 µg/mL; Vd ([1]; male, Wistar, iv, 10 mg/kg): 0.0416 L; half-life ([1]; male, Wistar, iv, 10 mg/kg): 0.265 h; Kel ([1]; 10 mg/kg intravenous): 2.60 h⁻¹; toxicity against normal cells (normal cells): minimal toxicity against normal cells
C=C(C)[C@@H]1CC[C@]2(C(=O)NCC(=O)O)CC[C@]3(C)[C@H](CC[C@@H]4[C@@]5(C)Cc6c([nH]c7ccccc67)C(C)(C)[C@@H]5CC[C@]43C)[C@@H]12 [Compound 22, 28-N-Glycine-2,3-didehydroindolo[2′,3′:2,3]betulinamide] |  |  |  |  |  |  | 8.7 µg/mL | 7.0 µg/mL | 0.67 ± 0.03 µg/mL | 3.0 µg/mL | >20 µg/mL | 0.68 ± 0.003 µg/mL | 3.53 ± 0.82 µg/mL | 11.92 ± 1.37 µg/mL | Specific Index (SI) for cell lines Miapaca (Miapaca): 1.015; Specific Index (SI) for cell lines HBL100 (HBL100): <0.034; Specific Index (SI) for cell lines K562 (K562): 0.057
C=C(C)[C@@H]1CC[C@]2(C(=O)NCC(=O)OC)CC[C@]3(C)C(CCC4[C@@]5(C)Cc6c([nH]c7ccc(Cl)cc67)C(C)(C)C5CC[C@]43C)C12 (stereo partly drawn) [Compound 23, 28-N-Methylglycinate-5′-chloro-2,3-didehydroindolo[2′,3′:2,3]betulinamide] | > 20 µg/mL | > 20 µg/mL | > 20 µg/mL | > 20 µg/mL | > 20 µg/mL | > 20 µg/mL |  |  |  |  |  |  |  |  | IC50 (NIH 3T3 cells; Mus musculus, read-out: IC50 for cell lines NIH3T3): > 20 µg/mL; IC50 (K562; Homo sapiens, K562, 72 hours, MTT, read-out: IC50 for cell lines K562): > 20 µg/mL
C=C(C)[C@@H]1CC[C@]2(C(=O)NCC(=O)O)CC[C@]3(C)C(CCC4[C@@]5(C)Cc6c([nH]c7ccc(Cl)cc67)C(C)(C)C5CC[C@]43C)C12 (stereo partly drawn) [Compound 24, 28-N-Glycine-5′-chloro-2,3-didehydroindolo[2′,3′:2,3]betulinamide] |  |  |  |  |  |  | 10.42 µg/mL | 10.32 µg/mL | 10.7 ± 0.63 µg/mL | 6.66 µg/mL | 16.5 ± 0.6 µg/mL | 11.2 ± 0.63 µg/mL | 12.4 ± 1.78 µg/mL | >20 µg/mL | Specific Index (SI) for cell lines Miapaca (Miapaca): 1.047; Specific Index (SI) for cell lines HBL100 (HBL100): 0.679; Specific Index (SI) for cell lines A549 (A549; ratio of IC50 of NIH 3T3 cells to A549): 0.903; Specific Index (SI) for cell lines K562 (K562): <0.56
C=C(C)[C@@H]1CC[C@]2(C(=O)Nc3ccccn3)CC[C@]3(C)C(CCC4[C@@]5(C)Cc6c([nH]c7ccc(Cl)cc67)C(C)(C)C5CC[C@]43C)C12 (stereo partly drawn) [Compound 25, 28-N-(2″-pyridine)-5′-chloro-2,3-didehydroindolo[2′,′:2,3]betulinamide] |  |  |  |  |  |  | >20 µg/mL | >20 µg/mL | >20 µg/mL | >20 µg/mL | >20 µg/mL | >20 µg/mL | >20 µg/mL | >20 µg/mL | 
C=C(C)[C@@H]1CC[C@]2(C(=O)Nc3nccs3)CC[C@]3(C)C(CCC4[C@@]5(C)Cc6c([nH]c7ccc(Cl)cc67)C(C)(C)C5CC[C@]43C)C12 (stereo partly drawn) [Compound 26, 28-N-(2″-thiazole)-5′-chloro-2,3-didehydroindolo[2′,′:2,3]betulinamide] |  |  |  |  |  |  | >20 µg/mL | >20 µg/mL | >20 µg/mL | >20 µg/mL | >20 µg/mL | >20 µg/mL | >20 µg/mL | >20 µg/mL | 
C#CCNC(=O)[C@]12CC[C@@H](C(=C)C)C1C1CCC3[C@@]4(C)Cc5c([nH]c6ccc(Cl)cc56)C(C)(C)C4CC[C@@]3(C)[C@]1(C)CC2 (stereo partly drawn) [Compound 27, 28-N-Propargyl-5′-chloro-2,3-didehydroindolo[2′,′:2,3]betulinamide] |  |  |  |  |  |  | >20 µg/mL | >20 µg/mL | >20 µg/mL | >20 µg/mL | >20 µg/mL | >20 µg/mL | >20 µg/mL | >20 µg/mL | 
C=C(C)[C@@H]1CC[C@]2(C(=O)O)CC[C@]3(C)C(CCC4[C@@]5(C)Cc6c([nH]c7cc(Cl)cc(Cl)c67)C(C)(C)C5CC[C@]43C)C12 (stereo partly drawn) [Compound 31, 2,3-Didehydro-4′,6′-dichloroindolo[2′,3′:2,3]betulinic acid] |  |  |  |  |  |  | >20 µg/mL | >20 µg/mL | >20 µg/mL | >20 µg/mL | >20 µg/mL | 4.10 µg/mL | 5.5 µg/mL | >20 µg/mL | 
C=C(C)[C@@H]1CC[C@]2(C(=O)NC3CC3)CC[C@]3(C)C(CCC4[C@@]5(C)Cc6c([nH]c7ccc(Cl)cc67)C(C)(C)C5CC[C@]43C)C12 (stereo partly drawn) [Compound 34, 28-N-Cyclopropyl-5′-chloro-2,3-didehydroindolo[2′,′:2,3]betulinamide] |  |  |  |  |  |  | >20 µg/mL | >20 µg/mL | >20 µg/mL | >20 µg/mL | >20 µg/mL | 1.82 µg/mL | >20 µg/mL | >20 µg/mL | 
CC(C)[C@@H]1CC[C@]2(C(=O)O)CC[C@]3(C)C(CCC4[C@@]5(C)CC/C(=N/Oc6ccc([N+](=O)[O-])cc6)C(C)(C)C5CC[C@]43C)C12 (stereo partly drawn) [MJ1098-RS (III)] | 3.4 µg/mL (≈ 5.74 µM) | 0.82 µg/mL (≈ 1.38 µM) | 3.17 µg/mL (≈ 5.35 µM) | 3.63 µg/mL (≈ 6.12 µM) | 2.82 µg/mL (≈ 4.76 µM) | 1.18 µg/mL (≈ 1.98 µM) |  |  |  |  |  |  |  |  | in vitro cytotoxicity / anticancer activity (in words) [2]: good in vitro cytotoxicity; tumor reduction (tumor): shows tumor reduction; elimination (Kel) as compared to betulinic acid [3]: slower elimination; plasma concentrations as compared to betulinic acid (II) [3]: quite high and long lasting; systemic exposure (AUC0-∞) as compared to betulinic acid [3]: better systemic exposure; AUC (in vivo): 43600 ng·h/mL; C0 (in vivo): 101 µg/mL; Vd (in vivo): 0.0006 L; half-life (in vivo): 9.9 h

From US8022055B2, “Betulinic acid derivatives” (Dabur Pharma Limited, priority 2005, dated 2011)
